Source: US10793526B2, “Hydantoin derivative compounds, methods of use and methods of treatment” (University of South Florida, priority 2016, dated 2020)

Key:
E. coli = experiment: Time kill assay, E. coli; format: cell-based, Escherichia coli
Description: Bacteria MRSA (Gram-positive) and E. coli (Gram-negative) suspensions were allowed to grow at 37° C. to the mid-logarithmic phase, and diluted to 1×10^6 CFU/mL, […], 30 min, 1 h and 2 h, respectively. The resulted mixture was then diluted by 10^2 to 10^4 fold, from which 100 μL was spread on the TSB agar plate. The Number of bacteria colonies was counted after 20 h of incubation at 37° C.

E. coli (ATCC 25922) = experiment: Minimum inhibitory concentration (MIC) assay, E. coli; format: cell-based, Escherichia coli; settings: Escherichia coli, ATCC25922, Gram negative, 16 h incubation, read-out: MIC (μg/mL) E. coli
Description: (§1) Minimum inhibitory concentrations (MICs) assay.^2
(§2) All compounds were tested against six different bacteria strains: methicillin-resistant S. aureus (MRSA, ATCC 33591), E. coli (ATCC 25922), methicillin-resistant S. epidermidis (MRSE, RP62A), K. pneumoniae (ATCC 13383), vancomycin-resistant Enterococcus faecalis (VREF, ATCC 700802), P. aeruginosa (ATCC 27853). One colony of each bacteria was inoculated in 4 mL TSB buffer at 37° C. overnight, which was then diluted 100 times, and the bacteria were allowed to grow to the mid-logarithmic phase. 50 μL hydantoin compounds in 2-fold serial dilution of TSB were added in the 96-well plate, then 50 μL diluted bacterial in TSB medium (1×10^6 CFU/mL) was added to each well. After 16 h of incubation at 37° C., the absorption at 600 nm wavelength on a Biotek Synergy HT microtiter plate reader was recorded. Minimum inhibitory concentrations were determined as the lowest concentrations that inhibited bacteria growth completely.

[1] = system: P. aeruginosa (ATCC 27853); experiment: Minimum inhibitory concentration (MIC) assay, P. aeruginosa; format: cell-based, Pseudomonas aeruginosa
Description: as §1, §2

MRSA = experiment: Rat model of MRSA-induced pneumonia, bacterial count in lungs; format: in vivo; settings: 10 mg/kg i.v.
Description: The rat model of MRSA-induced pneumonia.^4, 5
The protocol of animal studies was approved by the institutional committee for animal care of Nanjing University, and the experiments were conducted following the regulation of the National Ministry of Health of China. In Brief, male Wistar rats (6-8 weeks, ˜200 g in average weight) were subjected to fast for 12 h. Next, rats were anesthetized by intraperitoneal administration of 0.35 g/kg of chloral hydrate. To induce MRSA pneumonia, the trachea of rats were exposed, to which 100 μL PBS containing 2×10^6 CFU/mL MRSA in PBS was slowly injected. The rats were retained upright for 1 min, and the cut was sealed. The MRSA infection was allowed to develop for 24 h.
Bronchoalveolar lavage (BAL) assay.
The assay was carried out to quantify the bacteria in the lungs of rats. The thorax of rats was opened, and the lungs were collected in each group at different time points. Then the lungs were malleated and homogenized by a glass homogenizer, and diluted with PBS to the determined volume. After that, 10 μL solution was picked up, diluted with PBS by 100-fold, and daubed on the isolation medium. Bacteria were counted in each sample after incubation for 24 h at 37° C., from which the number of bacteria (colonies/g tissue) was calculated.

[2] = system: panel of Gram-positive and Gram-negative bacteria; experiment: Antimicrobial activity against the whole panel of bacteria; format: cell-based; settings: all tested strains; read-out: MICs against all tested Gram-positive and Gram-negative strains
Description: as §1, §2

SMILES: CCCCCCCCCCCC(=O)N[C@@H](CCCCN)CN1CC(=O)N(c2cccc(Cl)c2)C1=O [Compound 22, (S)—N-(6-amino-1-(3-(3-chlorophenyl)-2,4-dioxoimidazolidin-1-yl)hexan-2-yl)dodecanamide]
- time to completely eradicate E. coli (E. coli; 4.0 μg/mL (4×MIC)): 60 min
- time to eradicate all E. coli (E. coli; 25 μg/mL): 30 min
- time to eradicate all E. coli (E. coli; 50 μg/mL): 30 min
- MIC (E. coli (ATCC 25922)): 1 µg/mL
- MIC ([1]; Pseudomonas aeruginosa, ATCC27853, Gram negative, ATCC 27853, 16 h incubation, read-out: MIC (μg/mL) P.A.): 1 µg/mL
- effectiveness toward P. aeruginosa compared with nitrofurantoin ([1]; ratio of MICs): at least 50 fold
- reduction of bacteria compared with the control, day 5 (MRSA): 96%
- MIC [2]: < 1 µg/mL
